# In patent US8258154B2, “Bicyclic heteroaryl inhibitors of PDE4” (Kalypsys Inc., priority 2006, dated 2012):
# System: Lacrimal gland inflammation-induced dry eye
# Assay: Lacrimal gland inflammation-induced dry eye in rabbits (corneal staining, tear breakup time)
# Type: in vivo
# Details: rabbit, topical ocular BID, percent concentration 1
# Description: A more detailed description of the assay used herein may be found in Naglehout, T J et al. 2005, “Preservation of Tear Film Integrity and Inhibition of Corneal Injury by Dexamethasone in a Rabbit Model of Lacrimal Gland Inflammation-Induced Dry Eye,” J. Ocular Pharm. Ther., 21:2. 139-148, the disclosure of which is hereby incorporated by reference as if written herein in its entirety. Rabbits (n=4/group) were randomized into treatment groups and dosed topically BID with maxidex vehicle or test drug beginning one day prior to initiation of dry eye. Each rabbit received bilateral lacrimal gland injections of saline or ConA (300 μg/30 μl) and topical ocular dosing was continued BID throughout the study. Desiccation was initiated 1-2 hours following lacrimal gland injection by placing conscious rabbits in the environmental chamber (10-15% humidity/72° F.). […] Absorbance of the extracted dye was determined at 660 nm. TBUT was quantified in a separate group of treated animals. TBUT was determined by instilling 5 μL sodium fluorescein into the cul de sac and manually blinking the lids to distribute the fluorescein within the tear film. Under slit lamp observation, the eye was held open and the time whereby one or more black spots or streaks appeared in the precorneal tear film was recorded. […]
compound,measurement,value
"COc1ccc2c(Nc3c(Cl)cncc3Cl)cc(=O)[nH]c2c1OC1CCCC1 [Example 1, 8-(Cyclopentyloxy)-4-(3,5-dichloropyridin-4-ylamino)-7-methoxyquinolin-2(1H)-one]",Activity at Percent Concentration Tested 1,Inac-
